Data reported in patent US9156831B2, “Chemical compounds” (ASTRAZENECA AB, priority 2013, dated 2015).

How the values were obtained:
Experiment in all cases: Cell proliferation assay (MTS)
KG1 = assay type: cell-based, human
Procedure: (§1) The sensitivity of a panel of human cancer cell lines to the effects of compounds was determined in a standard proliferation assay.
(§2) Cells were plated in 96 well plates at densities of 1000-6000 cells per well in RPMI media containing 10% FBS. After incubation at 37° C. for 16 hours, various concentrations of compound were added to the assay plates. After incubation for an additional 72 h, the viable cells were determined by the addition of MTS reagent (Promega #3582) to each well for 2 h. MTS is a tetrazolium salt that is bioreduced by metabolically active cells in the presence of an electron coupling reagent to formazan. The formazan product was then quantitated by absorbance at 490 nm, as an indicator of the relative number of live cells. In order to determine the GI50 (concentration at which growth of cells was inhibited by 50%) the relative number of cells present at the time of drug addition was determined by comparison with the MTS readout before the drug was added, and this value was subtracted from the 72 hr value of untreated cells as a measure of cell growth during the assay.

RT4 = assay type: cell-based, human
Procedure: as §1
(§3) Cells were plated in 96 well plates at densities of 1000-6000 cells per well in RPMI media containing 10% FBS. After incubation at 37° C. for 16 hours, various concentrations of compound were added to the assay plates. After incubation for an additional 72 h, the viable cells were determined by the addition of MTS reagent (Promega #3582) to each well for 2 h. […] The formazan product was then quantitated by absorbance at 490 nm, as an indicator of the relative number of live cells. In order to determine the GI50 (concentration at which growth of cells was inhibited by 50%) the relative number of cells present at the time of drug addition was determined by comparison with the MTS readout before the drug was added, and this value was subtracted from the 72 hr value of untreated cells as a measure of cell growth during the assay.

HCC95 = assay type: cell-based, human
Procedure: (§4) The sensitivity of a panel of human cancer cell lines to the effects of compounds was determined in a standard proliferation assay. Cell lines were sourced through the AstraZeneca Cell Bank.
as §2

MDAMB453 = assay type: cell-based, human
Procedure: as §4, §2

BFTC905 = assay type: cell-based, human
Procedure: as §1, §3

HUH1 = test system: HUH1
Procedure: as §1, §3

SKHEP1 = assay type: cell-based, human
Procedure: as §1, §3

PANC89 = assay type: cell-based, human
Procedure: as §1, §2

RT11284 = assay type: cell-based, human
Procedure: as §1, §2

ASPC1 = assay type: cell-based, human
Procedure: as §1, §2

1A6 = assay type: cell-based, human
Procedure: as §1, §2

N87 = assay type: cell-based, human
Procedure: as §4, §3

PANC0327 = assay type: cell-based, human
Procedure: as §4, §2

RAJI = assay type: cell-based, human
Procedure: as §1, §2

MEC1 = assay type: cell-based, human
Procedure: as §1, §2

H460DNP53 = assay type: cell-based, human
Procedure: as §1, §2

CAPAN2 = assay type: cell-based, human
Procedure: as §1, §3

SU8686 = assay type: cell-based, human
Procedure: as §1, §3

H1703 = assay type: cell-based, human
Procedure: as §4, §2

H647 = assay type: cell-based, human
Procedure: as §1, §2

A549 = assay type: cell-based, human
Procedure: as §1, §2

JURKAT = assay type: cell-based, human
Procedure: as §1, §3

SNU484 = assay type: cell-based, human
Procedure: as §1, §2

PC9 = assay type: cell-based, human
Procedure: as §1, §2

SNU739 = assay type: cell-based, human
Procedure: as §4, §2

U937 = assay type: cell-based, human
Procedure: as §1, §2

VMCUB1 = assay type: cell-based, human
Procedure: as §1, §2

JIMT1 = assay type: cell-based, human
Procedure: as §1, §2

JVM3 = assay type: cell-based, human
Procedure: as §1, §2

K562 = assay type: cell-based, human
Procedure: as §1, §2

LUDLU1 = assay type: cell-based, human
Procedure: as §1, §3

SW620 = assay type: cell-based, human
Procedure: as §1, §3

QGY7703 = assay type: cell-based, human
Procedure: as §1, §2

HCC1937 = assay type: cell-based, human
Procedure: as §1, §2

YAPC = assay type: cell-based, human
Procedure: as §4, §2

SW1990 = assay type: cell-based, human
Procedure: as §1, §2

PANC0403 = assay type: cell-based, human
Procedure: as §1, §2

MHCC97L = assay type: cell-based, human
Procedure: as §4, §2

C99 = assay type: cell-based, human
Procedure: as §1, §2

MDAMB231 = assay type: cell-based, human
Procedure: as §1, §3

SW780 = assay type: cell-based, human
Procedure: as §1, §2

MONOMAC6 = assay type: cell-based, human
Procedure: as §1, §2

LK2 = assay type: cell-based, human
Procedure: as §4, §2

[1] = Homo sapiens, Pancreas, PIK3CA WT
[2] = Homo sapiens, Bladder, PIK3CA WT
[3] = Homo sapiens, Blood/lymph, PIK3CA WT

Compound: CCn1nc(C2CCN(C(=O)CCO)CC2)nc1-c1cnc(N)c(-c2nnc(C(C)(C)C)o2)n1 [Example 3, 1-(4-(5-(5-amino-6-(5-tert-butyl-1,3,4-oxadiazol-2-yl)pyrazin-2-yl)-1-ethyl-1H-1,2,4-triazol-3-yl)piperidin-1-yl)-3-hydroxypropan-1-one]
- Category (KG1): Resistant (resistant (GI50>1.0 μM))
- GI50 (KG1; Homo sapiens, KG-1, Blood/lymph, PIK3CA WT): 6.59 µM
- Category (RT4): Resistant (resistant (GI50>1.0 μM))
- GI50 (RT4; Homo sapiens, RT-4, Bladder, PIK3CA WT): 8.94 µM
- Category (HCC95): Resistant (resistant (GI50>1.0 μM))
- GI50 (HCC95; Homo sapiens, Lung, PIK3CA WT): 3.11 µM
- Category (MDAMB453): Sensitive (sensitive (GI50<=1.0 μM))
- GI50 (MDAMB453; Homo sapiens, MDA-MB-453, Breast, PIK3CA MUT): 0.456 µM
- Category (BFTC905): Sensitive (sensitive (GI50<=1.0 μM))
- GI50 (BFTC905; Homo sapiens, BFTC-905, Bladder, PIK3CA WT): 0.966 µM
- Category (HUH1; HUH1): Resistant (resistant (GI50>1.0 μM))
- GI50 (HUH1; Homo sapiens, HuH-1): 22.3 µM
- Category (SKHEP1): Resistant (resistant (GI50>1.0 μM))
- GI50 (SKHEP1; Homo sapiens, SK-HEP1, Liver, PIK3CA WT): 30 µM
- Category (PANC89): Resistant (resistant (GI50>1.0 μM))
- GI50 (PANC89; [1]): 1.62 µM
- Category (RT11284): Resistant (resistant (GI50>1.0 μM))
- GI50 (RT11284; Homo sapiens, RT112/84, Bladder, PIK3CA WT): 1.17 µM
- Category (ASPC1): Resistant (resistant (GI50>1.0 μM))
- GI50 (ASPC1; [1]): 1.74 µM
- Category (1A6): Resistant (resistant (GI50>1.0 μM))
- GI50 (1A6; [2]): 30 µM
- Category (N87): Resistant (resistant (GI50>1.0 μM))
- GI50 (N87; Homo sapiens, Stomach, PIK3CA WT): 1.3 µM
- Category (PANC0327): Resistant (resistant (GI50>1.0 μM))
- GI50 (PANC0327; Homo sapiens, PANC-03-27, Pancreas, PIK3CA WT): 8.03 µM
- Category (RAJI): Resistant (resistant (GI50>1.0 μM))
- GI50 (RAJI; [3]): 30 µM
- Category (MEC1): Resistant (resistant (GI50>1.0 μM))
- GI50 (MEC1; [3]): 30 µM
- Category (H460DNP53): Resistant (resistant (GI50>1.0 μM))
- GI50 (H460DNP53; Homo sapiens, Lung, PIK3CA WT): 18 µM
- Category (CAPAN2): Resistant (resistant (GI50>1.0 μM))
- GI50 (CAPAN2; Homo sapiens, Capan-2, Pancreas, PIK3CA WT): 13.4 µM
- Category (SU8686): Resistant (resistant (GI50>1.0 μM))
- GI50 (SU8686; Homo sapiens, SU.86.86, Pancreas, PIK3CA WT): 18 µM
- Category (H1703): Sensitive (sensitive (GI50<=1.0 μM))
- GI50 (H1703; Homo sapiens, NCI-H1703, Lung, PIK3CA WT): 0.514 µM
- Category (H647): Resistant (resistant (GI50>1.0 μM))
- GI50 (H647; Homo sapiens, NCI-H647, Lung, PIK3CA WT): 11.3 µM
- Category (A549): Resistant (resistant (GI50>1.0 μM))
- GI50 (A549; Homo sapiens, Lung, PIK3CA WT): 10.2 µM
- Category (JURKAT): Resistant (resistant (GI50>1.0 μM))
- GI50 (JURKAT; [3]): 8.69 µM
- Category (SNU484): Resistant (resistant (GI50>1.0 μM))
- GI50 (SNU484; Homo sapiens, SNU-484, Stomach, PIK3CA WT): 1.79 µM
- Category (PC9): Resistant (resistant (GI50>1.0 μM))
- GI50 (PC9; Homo sapiens, PC-9, Lung, PIK3CA WT): 30 µM
- Category (SNU739): Resistant (resistant (GI50>1.0 μM))
- GI50 (SNU739; Homo sapiens, SNU-739, Liver, PIK3CA WT): 25.9 µM
- Category (U937): Resistant (resistant (GI50>1.0 μM))
- GI50 (U937; Homo sapiens, U-937, Blood/lymph, PIK3CA WT): 7.34 µM
- Category (VMCUB1): Sensitive (sensitive (GI50<=1.0 μM))
- GI50 (VMCUB1; Homo sapiens, VM-CUB-1, Bladder, PIK3CA MUT): 0.732 µM
- Category (JIMT1): Resistant (resistant (GI50>1.0 μM))
- GI50 (JIMT1; Homo sapiens, JIMT-1, Breast, PIK3CA MUT): 1.46 µM
- Category (JVM3): Resistant (resistant (GI50>1.0 μM))
- GI50 (JVM3; Homo sapiens, JVM-3, Blood/lymph, PIK3CA WT): 30 µM
- Category (K562): Resistant (resistant (GI50>1.0 μM))
- GI50 (K562; [3]): 30 µM
- Category (LUDLU1): Resistant (resistant (GI50>1.0 μM))
- GI50 (LUDLU1; Homo sapiens, LUDLU-1, Lung, PIK3CA WT): 4.65 µM
- Category (SW620): Resistant (resistant (GI50>1.0 μM))
- GI50 (SW620; Homo sapiens, SW-620, Colon, PIK3CA WT): 13.4 µM
- Category (QGY7703): Resistant (resistant (GI50>1.0 μM))
- GI50 (QGY7703; Homo sapiens, QGY-7703, Liver, PIK3CA WT): 11.1 µM
- Category (HCC1937): Resistant (resistant (GI50>1.0 μM))
- GI50 (HCC1937; Homo sapiens, Breast, PIK3CA WT): 30 µM
- Category (YAPC): Resistant (resistant (GI50>1.0 μM))
- GI50 (YAPC; [1]): 30 µM
- Category (SW1990): Resistant (resistant (GI50>1.0 μM))
- GI50 (SW1990; [1]): 28.3 µM
- Category (PANC0403): Resistant (resistant (GI50>1.0 μM))
- GI50 (PANC0403; Homo sapiens, Panc 04.03, Pancreas, PIK3CA WT): 6.47 µM
- Category (MHCC97L): Resistant (resistant (GI50>1.0 μM))
- GI50 (MHCC97L; Homo sapiens, Liver, PIK3CA WT): 3.35 µM
- Category (C99): Resistant (resistant (GI50>1.0 μM))
- GI50 (C99; Homo sapiens, Colon, PIK3CA WT): 1.22 µM
- Category (MDAMB231): Resistant (resistant (GI50>1.0 μM))
- GI50 (MDAMB231; Homo sapiens, MDA-MB-231, Breast, PIK3CA WT): 23.6 µM
- Category (SW780): Resistant (resistant (GI50>1.0 μM))
- GI50 (SW780; [2]): 19.2 µM
- Category (MONOMAC6): Resistant (resistant (GI50>1.0 μM))
- GI50 (MONOMAC6; Homo sapiens, MONO-MAC-6, Blood/lymph, PIK3CA WT): 2.62 µM
- Category (LK2): Sensitive (sensitive (GI50<=1.0 μM))
- GI50 (LK2; Homo sapiens, LK-2, Lung, PIK3CA WT): 0.588 µM
